Key:
[1] = test system: YUMC-C1 cell line xenograft; type: in vivo; details: YUMC-C1 xenograft mice, oral, 13 times over 41 days, doses per Table 3
Description: (§1) 15 days after injection of each of the cell lines, when the tumor volume reached about 100 to 200 mm^3, mice having a tumor with the above volume were randomly grouped (n=10/group), and then each drug was administered to the mice 13 times for a total of 41 days under the conditions shown in Table 3 below. […] Here, nothing was administered to the control group.

[2] = test system: YUMC-H2 cell line xenograft; details: YUMC-H2 xenograft mice, oral, 13 times over 41 days, doses per Table 3
Description: as §1

[3] = test system: YUMC-P1 cell line xenograft; details: YUMC-P1 xenograft mice, oral, 13 times over 41 days, doses per Table 3
Description: as §1

YUMC-C1 cell line = details: drug alone at 200 μM, FIG. 2
Description: Each of the YUMC-C1, YUMC-H2 and YUMC-P1 cell lines of Example 1 was inoculated into 96-well plates at a density of 6×10^3 cells/well and then cultured overnight to a confluence of 90%. […] However, when 1-(2-fluorophenyl)-4,6-dimethyl-1H,2H,3H-pyrrolo[3,2-c]quinoline was used in combination with oxaliplatin or sorafenib, the treatment concentration of each of oxaliplatin and sorafenib was 30 μM. Thereafter, cell viability was measured using the MTT reagent. The absorbance was measured at 550 nm, and viable cells were counted using trypan blue staining.

YUMC-H2 cell line = assay: MTT cell viability, anticancer drug-resistant YUMC-H2 cell line; type: cell-based, human; details: drug alone at 200 μM, FIG. 2
YUMC-P1 cell line = assay: MTT cell viability, anticancer drug-resistant YUMC-P1 cell line; type: cell-based, human; details: drug alone at 200 μM, FIG. 2

Cc1nc2c(C)cccc2c2c1CCN2c1ccccc1F [Candidate 19]
changes in mouse body weight (toxicity) ([1]; FIG. 5): no changes | changes in mouse body weight (toxicity) ([2]; FIG. 5): no changes | changes in mouse body weight (toxicity) ([3]; FIG. 5): no changes

O=C1[O][Pt]2([NH][C@@H]3CCCC[C@H]3[NH]2)[O]C1=O [oxaliplatin]
tumor volume ([1]; vs control, FIG. 3): did not significantly decrease | tumor weight ([1]; vs control, FIG. 4): did not significantly decrease | cells survived (YUMC-C1 cell line): more than 80%

CNC(=O)c1cc(Oc2ccc(NC(=O)Nc3ccc(Cl)c(C(F)(F)F)c3)cc2)ccn1 [sorafenib]
cells survived (YUMC-H2 cell line): more than 80% | cells survived (YUMC-P1 cell line): more than 80% | tumor volume ([2]; FIG. 3): no significant changes | tumor weight ([2]; FIG. 4): no significant changes | tumor volume ([3]; FIG. 3): no significant changes | tumor weight ([3]; FIG. 4): no significant changes

From patent US11738021B2, “Composition and method for preventing, alleviating or treating cancer” (CKP Therapeutics, Inc., priority 2021, dated 2023)
